Measured values reported in US20140066657A1, “DOSAGE REGIMEN FOR A S1P RECEPTOR AGONIST” (Novartis AG, priority 2008, published 2014).

How the values were obtained:
healthy subjects [1] = test: Double-blind, placebo-controlled dose titration clinical study; heart rate by continuous telemetry and Holter; assay type: in vivo, human
Experimental: A single-center, double-blind, placebo-controlled, dose titration, once-daily, multiple-oral-dose clinical study in healthy subjects was conducted to evaluate the effect of a dosage regimen of FTY720 according to the present invention. A total of 36 subjects were randomly assigned to one of the three groups. Each subject participated in a screening period of maximal 21 days, a baseline period (Day −1), a 9-day dose-administration period, and clinical study completion assessments on Day 10. Subjects were assigned to one of the three groups (dose titration regimen group, placebo Control group, or active control group) and received the once daily dose in a double-blinded manner (Table 1). In the dose titration group, increasing once daily doses of Compound A (FTY720), starting at 0.125 mg o.d. and ending at the maximal therapeutic dose of 1.25 mg o.d. were administered on days 1 to 9 of the study according to the schedule shown in Table 1 below. The placebo control group received placebo through out the duration of the study and the active control group received a once daily dose of 1.25 mg of FTY720 on days 1 to 9. [table] On Day −1 (baseline), subjects will undergo baseline assessments including 24 hour holter monitoring and telemetry assessments. Pharmacodynamic and safety assessments are performed up to 24 hours post last dose. Heart rate is monitored via telemetry on Day −1 through Day 10, 24 hour after the last dosing. Heart rhythm is assessed via 24 hr continuous holter monitoring on Day −1, Day 1, and Day 9. For each dosing for each subject, the drug is administered as closely as practically possible to the time administered on Day −1. Safety assessments includes physical examinations, vital signs and body measurements, 12-lead ECG evaluations, standard clinical laboratory evaluations hematology, blood chemistry, urinalysis, adverse event and serious adverse event monitoring. Systolic and diastolic blood pressure and pulse are measured after the subject has rested quietly in the sitting position for at least 3 minutes. Blood pressure is measured at the same arm on each occasion. Standard 12-lead ECGs are recorded at Screening, baseline, 4 hours post-dose on Day 1 and Day 8, and at Study Completion. The variables recorded are: date and time of ECG, heart rate. PR interval, QT interval (uncorrected), QTcB, QRS duration. The overall interpretation is collected with a Yes/No statement to confirm if any clinically relevant abnormalities are present, which needs to be specified further. Subjects remain on continuous telemetry, starting before breakfast on Day −1 and proceeding throughout the administration period up to Day 10 (24 hour after the last dose). Over this ten day duration of continuous heart rate collection for each subject, one heart rate value is obtained every minute (‘minute unit heart rate’), representing the average heart rate value over that minute. The heart rate database for each subject contains approximately 14,400 data points (10 days×24 hr×60 min). 24-hour continuous Holter-ECG data are captured via a digital Holter monitor (12-lead, on Days −1, 1, 6, and 8), and transferred for interpretation and reporting. Hotter monitoring starts approximately at 7:00 and the time of dose administration is regarded as the time “0 hours'. Holter “cuts” are derived from the dataset at 1 hour intervals starting from Day −1 and continuing for 24 hours or the end of the cleaned Hotter monitoring dataset. Cardiac conduction intervals: arrhythmia monitoring includes the frequency and duration of sinus pauses (>2 sec and >3 sec) and atrio-ventricular blocks. Frequency and duration of atrial and ventricular ectopy and sinus rhythm are also recorded. The daily chronotropic effect is defined as the percent decrease in HRmin (minimum heart rate) between two consecutive days. It is calculated on days 1 to 9.

healthy subjects [2] = conditions: administration of 1.25 mg; cited from earlier work
multiple sclerosis = conditions: humans; Mehling et al. 2008, Kappos et al. 2006; cited from earlier work
[3] = FTY720 1.25 mg once daily treatment group (active control), oral, healthy subjects

For `CCCCCCCCc1ccc(CCC(N)(CO)CO)cc1.Cl` [FTY720, 2-amino-2-[2-(4-octylphenyl)ethyl]propane-1,3-diol], the “additional decrease in heart rate (daily average) from Day 1 to Day 2” value (healthy subjects [1]; [3]) was “approximately 3 BPM”, the “decrease in heart rate (daily average) from Day -1 to Day 1” value (healthy subjects [1]; [3]) was “approximately 8 BPM” and the “gradual decrease in heart rate per day” value (healthy subjects [1]; FTY720 titration group (0.125/0.25/0.5/1.25 mg o.d.), over the eight day course of the dose titration) was 1-2 BPM per day. The “dip in heart rate on initiation of 1.25 mg compared to the preceding days” value (healthy subjects [1]; FTY720 titration group, initiation of 1.25 mg on Day 8) was “does not result in dip in heart rate”, the “daily minimum heart rates during the course of the study” value (healthy subjects [1]; dose titration regimen compared with the FTY720 1.25 mg group) was “improved daily minimum heart rates” and the “negative chronotropic effect seen on Day 1 of treatment initiation” value (healthy subjects [1]; dose titration regimen versus 1.25 mg o.d. from Day 1) was “attenuates the negative chronotropic effect”. The “decrease in heart rate” value (healthy subjects [2]) was “approximately 8 beats/min (BPM)” and the “efficacy in the treatment of multiple sclerosis” value (multiple sclerosis) was “has been demonstrated in humans”.
